Data from US6828347B2, “Anti-viral multi-quinone compounds and regiospecific synthesis thereof” (Illinois Institute of Technology, priority 2002, dated 2004).

Columns and labels:
uninfected CEM-T4 cells = assay: Toxicity to uninfected CEM-T4 cells (MTT assay); assay type: cell-based; details: day 8, MTT
Description: The assays desirably measure the concentration of the multi-quinone that allows for 50% survival of CEM-T4 cells infected with HIV-1 and the concentration of multi-quinone that kills 50% of uninfected CEM-T4 cells. One skilled in the art will appreciate that other known assays or tests for determining antiviral activity may be used.
The chlorohydroxybiquinone was tested for anti-HIV activity by the CEM-T4 cytoprotection assay which measures the inhibition of viral cytopathogenic effects. CEM-T4 cells used for the assay were maintained in RPMI-1640 culture medium containing 2 millimoles L-glutamine and 25 millimoles HEPES, and supplemented with 10% fetal bovine serum, 50 units/milliliter of penicillin G, and 50 microgram/milliliter streptomycin sulfate. The antiviral assays were performed in 96-well tissue culture plates. Cells were treated with polybrene at a concentration of 2 microgram/milliliter, and 1×10^4 cells were dispensed into each well. Appropriate concentrations of the biquinone were prepared in sterile DMSO and diluted with culture medium to the desired concentrations. Each dilution of test compound was added to multiple wells of cells, and the cells were incubated at 37° C. for one hour. Cells were then infected at a multiplicity of infection of 0.025 TCID50/cell by the addition of a diluted stock of the HTLV-IIIB strain of HIV-1. […]
Assay plates were incubated at 37° C. in a humidified 5% carbon dioxide (CO2) atmosphere and examined microscopically for toxicity and/or cytopathogenic effect. Once the viral cytopathogenic effect was maximal (the eighth day post-infection), the surviving cells in each test well were quantified using the MTT assay known in the art and described in Pauwels et al., “Rapid and Automated Tetrazolium-based Colorimetric Assay for the Detection of Anti-HIV Compounds,” J. Virol. […] When a dose-dependent effect for either anti-HIV activity or cytotoxicity was observed, values for the 50% effective dose were calculated using the dose-effect analysis software of Chou and Chou, available from Elsevier-Biosoft.

[1] = system: retroviruses such as an HIV; details: as disclosed in the Boyd et al. Patents; cited from earlier work

CC(C)=CCC[C@]1(C)C=Cc2c(ccc3c2C(=O)C(O)=C(C2=C(Cl)C(=O)c4ccccc4C2=O)C3=O)O1 [chlorohydroxybiquinone, 8-(3-Chloro-1,4-dioxo-1,4-dihydronapthalen-2-yl)-9-hydroxy-3-methyl-3-(4-methyl-pent-3-enyl)-3H-benzo[f]chromene-7,10-dione]
TD50 (concentration to cause reduction of cell growth by 50% of uninfected controls) (uninfected CEM-T4 cells): 2.7 µM

COC1=C(C2=C(Cl)C(=O)c3ccccc3C2=O)C(=O)c2ccc3c(c2C1=O)C=C[C@@](C)(CCC=C(C)C)O3 [chloromethoxybiquinone, 8-(3-Chloro-1,4-dioxo-1,4-dihydro-napthalen-2-yl)-9-methoxy-3-methyl-3-(4-methyl-pent-3-enyl)-3H-benzo[f]chromene-7,10-dione]
TD50 (concentration to cause reduction of cell growth by 50% of uninfected controls) (uninfected CEM-T4 cells): 5.4 µM

CC(C)=CCC[C@]1(C)C=Cc2c(ccc3c2C(=O)C(O)=C(C2=C(C4=C(O)C(=O)c5c(ccc6c5C=C[C@@](C)(CCC=C(C)C)O6)C4=O)C(=O)c4c(ccc5c4C=C[C@@](C)(CCC=C(C)C)O5)C2=O)C3=O)O1 [conocurvone]
antiviral activity (growth and replication of viruses) [1]: inhibit the growth and replication of viruses

COC1=C(C2=C(C3=C(O)C(=O)c4ccccc4C3=O)C(=O)c3ccccc3C2=O)C(=O)c2ccc3c(c2C1=O)C=CC(C)(C)O3 [trimeric quinone, 3-Hydroxy-3′-(9-methoxy-3,3-dimethyl-7,10-dioxo-7,10-dihydro-3H-benzo[f]chromen-8-yl)-2,2′-binaphthalenyl-1,4,1′,4′-tetraone]
TD50 (concentration to cause reduction of cell growth by 50% of uninfected controls) (uninfected CEM-T4 cells): 17 µM
